Assays:
Format in all cases: functional
Escherichia coli [1] = experiment: Antimicrobial activity against Escherichia coli isolate GZ15 transconjugant harboring 16S rRNA methylase RmtB and qepA by agar dilution method relative to recipient strain
Escherichia coli [2] = experiment: Antimicrobial activity against Escherichia coli isolate GZ4 transconjugant harboring 16S rRNA methylase RmtB and qepA by agar dilution method relative to recipient strain
Escherichia coli [3] = experiment: Antimicrobial activity against Escherichia coli isolate GZ5 transconjugant harboring 16S rRNA methylase RmtB and qepA by agar dilution method relative to recipient strain
Escherichia coli [4] = experiment: Antimicrobial activity against Escherichia coli isolate CQ6 transconjugant harboring 16S rRNA methylase RmtB and qepA, qnrS2, aac(6')-Ib-cr gene by agar dilution method relative to recipient strain
Escherichia coli [5] = experiment: Antimicrobial activity against Escherichia coli isolate GZ2 transconjugant harboring 16S rRNA methylase RmtB and qnrS1 by agar dilution method relative to recipient strain
Escherichia coli [6] = experiment: Antimicrobial activity against Escherichia coli isolate GZ11 transconjugant harboring 16S rRNA methylase RmtB and qepA by agar dilution method relative to recipient strain
Escherichia coli [7] = experiment: Antimicrobial activity against Escherichia coli isolate GZ3 transconjugant harboring 16S rRNA methylase RmtB and qepA by agar dilution method relative to recipient strain
Escherichia coli [8] = experiment: Antimicrobial activity against Escherichia coli isolate GZ7 transconjugant harboring 16S rRNA methylase RmtB and qepA and qnrS1 by agar dilution method relative to recipient strain
Escherichia coli [9] = experiment: Antimicrobial activity against Escherichia coli isolate CQ20 transconjugant harboring 16S rRNA methylase RmtB and qepA by agar dilution method relative to recipient strain
Escherichia coli [10] = experiment: Antimicrobial activity against Escherichia coli isolate CQ22 transconjugant harboring 16S rRNA methylase RmtB and qnrS1 by agar dilution method relative to recipient strain
Escherichia coli [11] = experiment: Antimicrobial activity against Escherichia coli isolate CQ7 transconjugant harboring 16S rRNA methylase RmtB and qepA, qnrS2, aac(6')-Ib-cr gene by agar dilution method relative to recipient strain
Escherichia coli [12] = experiment: Antimicrobial activity against Escherichia coli isolate GZ8 transconjugant harboring 16S rRNA methylase RmtB and qepA by agar dilution method relative to recipient strain
Escherichia coli [13] = experiment: Antimicrobial activity against Escherichia coli isolate CQ4 transconjugant harboring 16S rRNA methylase RmtB and qepA by agar dilution method relative to recipient strain
Escherichia coli [14] = experiment: Antimicrobial activity against Escherichia coli isolate CQ14 transconjugant harboring 16S rRNA methylase RmtB and qepA by agar dilution method relative to recipient strain
Escherichia coli [15] = experiment: Antimicrobial activity against Escherichia coli isolate CQ19 transconjugant harboring 16S rRNA methylase RmtB and qepA, aac(6')-Ib-cr gene by agar dilution method relative to recipient strain
Escherichia coli [16] = experiment: Antimicrobial activity against Escherichia coli isolate GZ16 transconjugant harboring 16S rRNA methylase RmtB and qepA by agar dilution method relative to recipient strain
Escherichia coli [17] = experiment: Antimicrobial activity against Escherichia coli isolate GZ14 transconjugant harboring 16S rRNA methylase RmtB and qepA by agar dilution method relative to recipient strain
Escherichia coli [18] = experiment: Antimicrobial activity against Escherichia coli isolate CQ13 transconjugant harboring 16S rRNA methylase RmtB and qnrS1 by agar dilution method relative to recipient strain
Escherichia coli [19] = experiment: Antimicrobial activity against Escherichia coli isolate CQ26 transconjugant harboring 16S rRNA methylase RmtB and qepA by agar dilution method relative to recipient strain
Escherichia coli [20] = experiment: Antimicrobial activity against Escherichia coli isolate CQ10 transconjugant harboring 16S rRNA methylase RmtB and qepA by agar dilution method relative to recipient strain
Escherichia coli [21] = experiment: Antimicrobial activity against Escherichia coli isolate CQ16 transconjugant harboring 16S rRNA methylase RmtB and qepA, qnrS2, aac(6')-Ib-cr gene by agar dilution method relative to recipient strain
Escherichia coli [22] = experiment: Antimicrobial activity against Escherichia coli isolate CQ1 transconjugant harboring 16S rRNA methylase RmtB and qnrB6 by agar dilution method relative to recipient strain
Escherichia coli [23] = experiment: Antimicrobial activity against Escherichia coli isolate CQ15 transconjugant harboring 16S rRNA methylase RmtB and qepA by agar dilution method relative to recipient strain
Escherichia coli [24] = experiment: Antimicrobial activity against Escherichia coli isolate CQ5 transconjugant harboring 16S rRNA methylase RmtB and qepA by agar dilution method relative to recipient strain
Escherichia coli [25] = experiment: Antimicrobial activity against Escherichia coli isolate CQ18 transconjugant harboring 16S rRNA methylase RmtB and qepA by agar dilution method relative to recipient strain
Escherichia coli [26] = experiment: Antimicrobial activity against Escherichia coli isolate CQ2 transconjugant harboring 16S rRNA methylase RmtB and qepA by agar dilution method relative to recipient strain
Escherichia coli [27] = experiment: Antimicrobial activity against Escherichia coli isolate GZ6 transconjugant harboring 16S rRNA methylase RmtB and qepA by agar dilution method relative to recipient strain
Escherichia coli [28] = experiment: Antimicrobial activity against Escherichia coli isolate CQ12 transconjugant harboring 16S rRNA methylase RmtB and qepA, qnrS2, aac(6')-Ib-cr gene by agar dilution method relative to recipient strain
Escherichia coli [29] = experiment: Antimicrobial activity against Escherichia coli isolate GZ1 transconjugant harboring 16S rRNA methylase RmtB and qnrS1 by agar dilution method relative to recipient strain
Escherichia coli [30] = experiment: Antimicrobial activity against Escherichia coli isolate GZ10 transconjugant harboring 16S rRNA methylase RmtB and qepA, aac(6')-Ib-cr gene by agar dilution method relative to recipient strain
Escherichia coli [31] = experiment: Antimicrobial activity against Escherichia coli isolate GZ13 transconjugant harboring 16S rRNA methylase RmtB and qepA by agar dilution method relative to recipient strain
Escherichia coli [32] = experiment: Antimicrobial activity against Escherichia coli isolate GZ9 transconjugant harboring 16S rRNA methylase RmtB and qepA by agar dilution method relative to recipient strain
Escherichia coli [33] = experiment: Antimicrobial activity against Escherichia coli isolate GZ12 transconjugant harboring 16S rRNA methylase RmtB and qepA by agar dilution method relative to recipient strain

`C[C@H]1COc2c(N3CCN(C)CC3)c(F)cc3c(=O)c(C(=O)O)cn1c23.C[C@H]1COc2c(N3CCN(C)CC3)c(F)cc3c(=O)c(C(=O)O)cn1c23.O` [LEVOFLOXACIN] was tested. Which “fold change (FC)” value (Escherichia coli [1]) did it give?
The value was 2.

And the “fold change (FC)” value (Escherichia coli [2])?
The value was 2.

And the “fold change (FC)” value (Escherichia coli [3])?
The value was 2.

What about the “fold change (FC)” value (Escherichia coli [4]) of the same compound?
The value was 4.

And the “fold change (FC)” value (Escherichia coli [5])?
Its value is 2.

And the “fold change (FC)” value (Escherichia coli [6])?
Its value is 2.

And the “fold change (FC)” value (Escherichia coli [7])?
Its value is 2.

What about the “fold change (FC)” value (Escherichia coli [8]) of the same compound?
The value was 1.

And the “fold change (FC)” value (Escherichia coli [9])?
The value was 2.

And the “fold change (FC)” value (Escherichia coli [10])?
Its value is 1.

What about the “fold change (FC)” value (Escherichia coli [11]) of the same compound?
Its value is 1.

What about the “fold change (FC)” value (Escherichia coli [12]) of the same compound?
Its value is 1.

What about the “fold change (FC)” value (Escherichia coli [13]) of the same compound?
The value was 1.

And the “fold change (FC)” value (Escherichia coli [14])?
Its value is 2.

What about the “fold change (FC)” value (Escherichia coli [15]) of the same compound?
Its value is 1.

And the “fold change (FC)” value (Escherichia coli [16])?
The value was 4.

What about the “fold change (FC)” value (Escherichia coli [17]) of the same compound?
Its value is 4.

What about the “fold change (FC)” value (Escherichia coli [18]) of the same compound?
Its value is 4.

What about the “fold change (FC)” value (Escherichia coli [19]) of the same compound?
Its value is 1.

And the “fold change (FC)” value (Escherichia coli [20])?
The value was 2.

What about the “fold change (FC)” value (Escherichia coli [21]) of the same compound?
Its value is 2.

What about the “fold change (FC)” value (Escherichia coli [22]) of the same compound?
Its value is 1.

And the “fold change (FC)” value (Escherichia coli [23])?
The value was 1.

What about the “fold change (FC)” value (Escherichia coli [24]) of the same compound?
Its value is 1.

What about the “fold change (FC)” value (Escherichia coli [25]) of the same compound?
Its value is 1.

What about the “fold change (FC)” value (Escherichia coli [26]) of the same compound?
The value was 4.

What about the “fold change (FC)” value (Escherichia coli [27]) of the same compound?
Its value is 4.

What about the “fold change (FC)” value (Escherichia coli [28]) of the same compound?
Its value is 2.

And the “fold change (FC)” value (Escherichia coli [29])?
Its value is 4.

And the “fold change (FC)” value (Escherichia coli [30])?
Its value is 4.

What about the “fold change (FC)” value (Escherichia coli [31]) of the same compound?
Its value is 2.

What about the “fold change (FC)” value (Escherichia coli [32]) of the same compound?
The value was 2.

And the “fold change (FC)” value (Escherichia coli [33])?
The value was 8.

How did the “fold change (FC)” value (Escherichia coli [1]) turn out when `CCn1cc(C(=O)O)c(=O)c2ccc(C)nc21` [NALIDIXIC ACID] was run?
Its value is 1.

And the “fold change (FC)” value (Escherichia coli [2])?
Its value is 2.

And the “fold change (FC)” value (Escherichia coli [3])?
The value was 1.

What about the “fold change (FC)” value (Escherichia coli [4]) of the same compound?
Its value is 16.

And the “fold change (FC)” value (Escherichia coli [5])?
Its value is 4.

And the “fold change (FC)” value (Escherichia coli [6])?
Its value is 2.

And the “fold change (FC)” value (Escherichia coli [7])?
Its value is 8.

And the “fold change (FC)” value (Escherichia coli [8])?
Its value is 16.

And the “fold change (FC)” value (Escherichia coli [9])?
The value was 1.

And the “fold change (FC)” value (Escherichia coli [10])?
The value was 1.

What about the “fold change (FC)” value (Escherichia coli [11]) of the same compound?
The value was 1.

What about the “fold change (FC)” value (Escherichia coli [12]) of the same compound?
The value was 4.

And the “fold change (FC)” value (Escherichia coli [13])?
The value was 2.

What about the “fold change (FC)” value (Escherichia coli [14]) of the same compound?
Its value is 1.

What about the “fold change (FC)” value (Escherichia coli [15]) of the same compound?
The value was 1.

And the “fold change (FC)” value (Escherichia coli [16])?
Its value is 2.

And the “fold change (FC)” value (Escherichia coli [17])?
The value was 1.

And the “fold change (FC)” value (Escherichia coli [18])?
The value was 4.

And the “fold change (FC)” value (Escherichia coli [19])?
Its value is 1.

What about the “fold change (FC)” value (Escherichia coli [20]) of the same compound?
The value was 1.

And the “fold change (FC)” value (Escherichia coli [21])?
The value was 2.

What about the “fold change (FC)” value (Escherichia coli [22]) of the same compound?
Its value is 2.

And the “fold change (FC)” value (Escherichia coli [23])?
The value was 1.

And the “fold change (FC)” value (Escherichia coli [24])?
Its value is 1.

And the “fold change (FC)” value (Escherichia coli [25])?
The value was 1.

What about the “fold change (FC)” value (Escherichia coli [26]) of the same compound?
The value was 1.

What about the “fold change (FC)” value (Escherichia coli [27]) of the same compound?
Its value is 1.

And the “fold change (FC)” value (Escherichia coli [28])?
Its value is 1.

And the “fold change (FC)” value (Escherichia coli [29])?
Its value is 4.

And the “fold change (FC)” value (Escherichia coli [30])?
The value was 16.

What about the “fold change (FC)” value (Escherichia coli [31]) of the same compound?
Its value is 4.

And the “fold change (FC)” value (Escherichia coli [32])?
The value was 4.

What about the “fold change (FC)” value (Escherichia coli [33]) of the same compound?
Its value is 1.

Which results are given for `CCn1cc(C(=O)O)c(=O)c2cc(F)c(N3CCNCC3)cc21` [NORFLOXACIN]?
fold change (FC) (Escherichia coli [1]): 4; fold change (FC) (Escherichia coli [2]): 4; fold change (FC) (Escherichia coli [3]): 16; fold change (FC) (Escherichia coli [4]): 16; fold change (FC) (Escherichia coli [5]): 2; fold change (FC) (Escherichia coli [6]): 4; fold change (FC) (Escherichia coli [7]): 16; fold change (FC) (Escherichia coli [8]): 16; fold change (FC) (Escherichia coli [9]): 4; fold change (FC) (Escherichia coli [10]): 2; fold change (FC) (Escherichia coli [11]): 16; fold change (FC) (Escherichia coli [12]): 8; fold change (FC) (Escherichia coli [13]): 2; fold change (FC) (Escherichia coli [14]): 32; fold change (FC) (Escherichia coli [15]): 16; fold change (FC) (Escherichia coli [16]): 8; fold change (FC) (Escherichia coli [17]): 16; fold change (FC) (Escherichia coli [18]): 4; fold change (FC) (Escherichia coli [19]): 4; fold change (FC) (Escherichia coli [20]): 32; fold change (FC) (Escherichia coli [21]): 16; fold change (FC) (Escherichia coli [22]): 2; fold change (FC) (Escherichia coli [23]): 8; fold change (FC) (Escherichia coli [24]): 16; fold change (FC) (Escherichia coli [25]): 8; fold change (FC) (Escherichia coli [26]): 16; fold change (FC) (Escherichia coli [27]): 8; fold change (FC) (Escherichia coli [28]): 16; fold change (FC) (Escherichia coli [29]): 16; fold change (FC) (Escherichia coli [30]): 16; fold change (FC) (Escherichia coli [31]): 8; fold change (FC) (Escherichia coli [32]): 16; fold change (FC) (Escherichia coli [33]): 16
